Experimental findings from ChEMBL document CHEMBL1201862, “PubChem BioAssay data set” (2004) are described below.

“And” between values parts separate entries of the source, which are not always exact repeats. Equal entries are not always repeated. The source made the active and inactive calls.

Experiment [1] deals with Voltage-gated inwardly rectifying potassium channel KCNH2 (Homo sapiens, UniProt Q12809). The settings on record: Potency.
The target of a further experiment is T1, Cytochrome P450 1A2 (Homo sapiens, UniProt P05177).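 Note: PubChem cytochrome P450 panel assay, CYP1A2 panel member.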
T1 sequence (P05177 whole entry): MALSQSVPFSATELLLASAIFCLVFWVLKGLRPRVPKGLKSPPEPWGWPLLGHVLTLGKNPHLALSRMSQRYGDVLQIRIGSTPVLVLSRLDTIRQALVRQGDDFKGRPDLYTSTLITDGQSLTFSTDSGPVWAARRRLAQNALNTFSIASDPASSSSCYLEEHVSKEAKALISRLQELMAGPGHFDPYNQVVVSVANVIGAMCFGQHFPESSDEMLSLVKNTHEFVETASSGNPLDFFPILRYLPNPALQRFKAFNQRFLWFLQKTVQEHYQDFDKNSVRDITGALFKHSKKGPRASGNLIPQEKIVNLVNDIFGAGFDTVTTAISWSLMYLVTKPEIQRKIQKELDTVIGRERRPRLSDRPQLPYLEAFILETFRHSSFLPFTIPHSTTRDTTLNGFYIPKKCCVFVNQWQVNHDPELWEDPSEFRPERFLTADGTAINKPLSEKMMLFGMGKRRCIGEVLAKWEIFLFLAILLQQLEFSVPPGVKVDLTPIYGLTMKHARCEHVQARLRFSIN

The target in a further experiment is Trypsin (Sus scrofa, UniProt P00761). Put plainly: trypsin protease activity blockade – biochemical, quenched peptide fluorescence, cherry-pick, selectivity assay for Rce1 protease inhibitor project, dose response (AID 488789).
Chain of Trypsin (P00761 whole entry): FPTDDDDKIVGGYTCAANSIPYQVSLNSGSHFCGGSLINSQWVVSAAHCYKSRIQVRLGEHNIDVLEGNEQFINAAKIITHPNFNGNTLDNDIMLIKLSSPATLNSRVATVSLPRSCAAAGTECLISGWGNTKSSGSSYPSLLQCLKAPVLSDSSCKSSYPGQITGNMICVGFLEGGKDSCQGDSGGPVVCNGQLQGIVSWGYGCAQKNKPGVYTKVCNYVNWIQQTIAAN
Experiment [2] deals with T2, CAAX prenyl protease 2 (Homo sapiens, UniProt Q9Y256).
T2 sequence (Q9Y256 whole entry): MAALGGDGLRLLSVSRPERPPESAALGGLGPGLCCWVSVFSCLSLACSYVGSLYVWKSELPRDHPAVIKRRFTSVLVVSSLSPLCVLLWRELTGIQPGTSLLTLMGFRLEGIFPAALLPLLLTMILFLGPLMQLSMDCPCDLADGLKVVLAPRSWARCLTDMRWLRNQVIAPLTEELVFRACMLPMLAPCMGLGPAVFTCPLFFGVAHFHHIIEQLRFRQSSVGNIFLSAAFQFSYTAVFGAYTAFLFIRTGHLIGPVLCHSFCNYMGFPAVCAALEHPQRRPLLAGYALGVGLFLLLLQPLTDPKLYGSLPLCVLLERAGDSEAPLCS
Description: inhibition of Ras-converting CAAX protease Rce1 – biochemical, yeast membranes, quenched-peptide fluorescence, cherry-pick, dose response (AID 588849).

Experiment [3] deals with T3, CAAX prenyl protease 2 (Saccharomyces cerevisiae S288c, UniProt Q03530).
T3 sequence (Q03530 whole entry): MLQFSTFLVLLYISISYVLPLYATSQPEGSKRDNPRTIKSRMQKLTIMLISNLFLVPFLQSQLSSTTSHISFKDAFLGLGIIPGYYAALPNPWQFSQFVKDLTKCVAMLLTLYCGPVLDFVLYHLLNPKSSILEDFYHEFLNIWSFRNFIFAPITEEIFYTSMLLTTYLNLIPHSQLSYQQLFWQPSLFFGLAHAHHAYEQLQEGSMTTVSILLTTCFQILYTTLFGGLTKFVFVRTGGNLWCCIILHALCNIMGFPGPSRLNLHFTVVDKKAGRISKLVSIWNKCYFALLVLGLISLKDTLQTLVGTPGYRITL
The class given is biochemical.

A further experiment has as its target Mu-type opioid receptor (Homo sapiens, UniProt P35372). It counts as functional, cell-based.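 Note: U2OS cells with beta-arrestin recruitment to OPRM1 by beta-gal complementation.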
Experiment [4] has as its target 5-hydroxytryptamine receptor 2A (Mus musculus, UniProt P35363). The class given is functional, cell-based.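 Note: CHO-K1 cells with tagged receptor and beta-arrestin; agonist potency measured as compound-induced activation of the receptor.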
The target in experiment [5] is T4, Nuclear receptor subfamily 0 group B member 1 (Homo sapiens, UniProt P51843).
T4 sequence (P51843 whole entry): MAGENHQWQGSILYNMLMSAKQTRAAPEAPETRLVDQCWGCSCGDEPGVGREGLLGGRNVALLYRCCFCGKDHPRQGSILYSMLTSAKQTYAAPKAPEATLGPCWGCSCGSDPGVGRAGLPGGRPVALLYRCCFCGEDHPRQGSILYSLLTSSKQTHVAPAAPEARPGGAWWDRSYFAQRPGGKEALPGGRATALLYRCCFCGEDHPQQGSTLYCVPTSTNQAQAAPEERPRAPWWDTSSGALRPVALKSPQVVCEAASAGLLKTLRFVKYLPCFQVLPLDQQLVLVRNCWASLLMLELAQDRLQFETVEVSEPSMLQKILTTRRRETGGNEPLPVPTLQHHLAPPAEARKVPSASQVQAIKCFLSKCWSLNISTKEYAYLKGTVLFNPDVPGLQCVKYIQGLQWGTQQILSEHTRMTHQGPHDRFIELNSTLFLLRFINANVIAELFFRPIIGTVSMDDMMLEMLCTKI
Description: Luminescence-based cell-based high throughput dose response assay for inhibitors of the orphan nuclear receptor subfamily 0, group B, member 1 (DAX1; NR0B1). [Related pubchem assays (depositor defined):AID504766, AID504790]. It counts as functional.

The subject of the next experiment is HEK293. Put plainly: cells. The class given is functional, cell-based. To be noted: Homo sapiens.
Experiment [6] addresses T5, Sentrin-specific protease 6 (Homo sapiens, UniProt Q9GZR1).
T5 sequence (Q9GZR1 whole entry): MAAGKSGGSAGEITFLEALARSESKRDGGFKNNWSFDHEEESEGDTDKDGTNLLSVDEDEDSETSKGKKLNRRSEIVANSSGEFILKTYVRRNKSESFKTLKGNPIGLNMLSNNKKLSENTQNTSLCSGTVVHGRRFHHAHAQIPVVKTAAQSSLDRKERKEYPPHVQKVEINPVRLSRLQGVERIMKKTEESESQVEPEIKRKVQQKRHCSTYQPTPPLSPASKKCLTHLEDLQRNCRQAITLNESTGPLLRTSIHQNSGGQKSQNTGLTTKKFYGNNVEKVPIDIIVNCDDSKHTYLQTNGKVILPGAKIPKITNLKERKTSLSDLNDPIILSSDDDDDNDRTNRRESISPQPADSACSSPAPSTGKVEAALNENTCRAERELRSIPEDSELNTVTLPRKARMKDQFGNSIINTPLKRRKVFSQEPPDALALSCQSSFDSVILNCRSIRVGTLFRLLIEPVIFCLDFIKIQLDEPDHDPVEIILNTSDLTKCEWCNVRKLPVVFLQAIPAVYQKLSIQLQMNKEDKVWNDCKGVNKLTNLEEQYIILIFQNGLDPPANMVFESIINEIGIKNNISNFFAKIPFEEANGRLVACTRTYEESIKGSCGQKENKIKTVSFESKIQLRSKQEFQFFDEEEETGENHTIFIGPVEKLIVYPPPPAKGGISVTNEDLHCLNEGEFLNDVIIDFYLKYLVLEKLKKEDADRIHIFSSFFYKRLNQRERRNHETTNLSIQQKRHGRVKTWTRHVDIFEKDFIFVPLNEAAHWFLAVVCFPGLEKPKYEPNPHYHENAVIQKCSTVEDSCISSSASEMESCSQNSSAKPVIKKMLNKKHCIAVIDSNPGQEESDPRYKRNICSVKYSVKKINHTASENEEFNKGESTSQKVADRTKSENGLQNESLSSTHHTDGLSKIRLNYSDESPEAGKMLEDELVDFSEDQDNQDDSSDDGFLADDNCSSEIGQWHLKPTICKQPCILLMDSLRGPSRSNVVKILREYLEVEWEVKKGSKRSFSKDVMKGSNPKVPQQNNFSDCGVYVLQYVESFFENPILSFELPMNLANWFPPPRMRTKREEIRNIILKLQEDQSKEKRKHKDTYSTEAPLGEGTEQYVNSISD
It counts as functional.

Experiment [7] concerns the target T6, Sentrin-specific protease 7 (Homo sapiens, UniProt Q9BQF6).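 Note: Luminescence-based dose-response confirmation of ultra-high-throughput screening hits, measuring inhibition of SENP7.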
T6 sequence (Q9BQF6 whole entry): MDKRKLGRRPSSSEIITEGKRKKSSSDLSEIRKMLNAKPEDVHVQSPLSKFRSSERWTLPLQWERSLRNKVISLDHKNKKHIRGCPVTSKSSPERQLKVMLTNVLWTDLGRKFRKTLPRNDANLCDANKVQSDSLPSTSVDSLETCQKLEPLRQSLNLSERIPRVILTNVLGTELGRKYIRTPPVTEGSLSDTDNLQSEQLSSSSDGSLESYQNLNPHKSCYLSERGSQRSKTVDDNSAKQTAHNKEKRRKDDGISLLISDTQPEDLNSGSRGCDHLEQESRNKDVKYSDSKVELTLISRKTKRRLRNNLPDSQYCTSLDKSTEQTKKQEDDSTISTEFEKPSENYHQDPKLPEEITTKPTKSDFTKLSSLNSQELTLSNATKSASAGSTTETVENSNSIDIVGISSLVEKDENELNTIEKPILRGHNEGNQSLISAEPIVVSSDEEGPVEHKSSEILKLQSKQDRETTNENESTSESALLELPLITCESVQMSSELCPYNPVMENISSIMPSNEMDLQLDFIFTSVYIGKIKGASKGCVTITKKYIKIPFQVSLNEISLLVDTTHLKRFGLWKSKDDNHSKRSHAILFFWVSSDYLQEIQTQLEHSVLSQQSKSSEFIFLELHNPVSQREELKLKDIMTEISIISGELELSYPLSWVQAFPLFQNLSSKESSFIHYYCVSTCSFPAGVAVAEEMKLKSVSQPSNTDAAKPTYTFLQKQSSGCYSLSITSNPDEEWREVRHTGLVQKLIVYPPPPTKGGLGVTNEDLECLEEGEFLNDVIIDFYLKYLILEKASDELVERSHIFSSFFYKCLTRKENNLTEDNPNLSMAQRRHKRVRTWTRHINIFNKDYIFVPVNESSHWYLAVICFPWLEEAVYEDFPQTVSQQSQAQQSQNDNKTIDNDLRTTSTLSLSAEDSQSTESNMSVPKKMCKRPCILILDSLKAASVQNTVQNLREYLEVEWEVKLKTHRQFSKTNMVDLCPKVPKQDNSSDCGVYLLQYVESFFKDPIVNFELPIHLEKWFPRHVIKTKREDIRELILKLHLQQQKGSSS
The class given is functional.

The target of experiment [8] is T7, Sentrin-specific protease 8 (Homo sapiens, UniProt Q96LD8).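 Note: luminescence read-out of SENP8 inhibition, dose-response confirmation following an ultra-high-throughput screen.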
T7 sequence (Q96LD8 whole entry): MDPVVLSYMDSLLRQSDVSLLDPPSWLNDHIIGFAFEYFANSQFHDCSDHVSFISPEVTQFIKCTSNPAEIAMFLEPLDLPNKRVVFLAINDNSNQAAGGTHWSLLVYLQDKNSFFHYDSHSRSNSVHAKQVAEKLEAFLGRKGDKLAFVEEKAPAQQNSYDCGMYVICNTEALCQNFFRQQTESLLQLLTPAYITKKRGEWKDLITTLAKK
The class given is functional.

Another experiment deals with T8, Caspase-3 (Homo sapiens, UniProt P42574).
T8 sequence (P42574 whole entry): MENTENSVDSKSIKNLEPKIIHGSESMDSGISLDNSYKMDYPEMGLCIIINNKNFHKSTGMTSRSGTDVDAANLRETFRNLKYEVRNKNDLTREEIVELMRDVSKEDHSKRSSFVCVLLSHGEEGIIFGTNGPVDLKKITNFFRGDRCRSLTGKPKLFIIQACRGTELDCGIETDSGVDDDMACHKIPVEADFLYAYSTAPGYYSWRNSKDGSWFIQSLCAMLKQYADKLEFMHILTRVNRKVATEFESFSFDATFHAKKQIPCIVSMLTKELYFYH
It counts as functional.

Another experiment has as its target Cytochrome P450 3A4 (Homo sapiens, UniProt P08684).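 Note: CYP3A4 tested as one member of a cytochrome P450 panel screen.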

Chain of Voltage-gated inwardly rectifying potassium channel KCNH2 (Q12809 whole entry): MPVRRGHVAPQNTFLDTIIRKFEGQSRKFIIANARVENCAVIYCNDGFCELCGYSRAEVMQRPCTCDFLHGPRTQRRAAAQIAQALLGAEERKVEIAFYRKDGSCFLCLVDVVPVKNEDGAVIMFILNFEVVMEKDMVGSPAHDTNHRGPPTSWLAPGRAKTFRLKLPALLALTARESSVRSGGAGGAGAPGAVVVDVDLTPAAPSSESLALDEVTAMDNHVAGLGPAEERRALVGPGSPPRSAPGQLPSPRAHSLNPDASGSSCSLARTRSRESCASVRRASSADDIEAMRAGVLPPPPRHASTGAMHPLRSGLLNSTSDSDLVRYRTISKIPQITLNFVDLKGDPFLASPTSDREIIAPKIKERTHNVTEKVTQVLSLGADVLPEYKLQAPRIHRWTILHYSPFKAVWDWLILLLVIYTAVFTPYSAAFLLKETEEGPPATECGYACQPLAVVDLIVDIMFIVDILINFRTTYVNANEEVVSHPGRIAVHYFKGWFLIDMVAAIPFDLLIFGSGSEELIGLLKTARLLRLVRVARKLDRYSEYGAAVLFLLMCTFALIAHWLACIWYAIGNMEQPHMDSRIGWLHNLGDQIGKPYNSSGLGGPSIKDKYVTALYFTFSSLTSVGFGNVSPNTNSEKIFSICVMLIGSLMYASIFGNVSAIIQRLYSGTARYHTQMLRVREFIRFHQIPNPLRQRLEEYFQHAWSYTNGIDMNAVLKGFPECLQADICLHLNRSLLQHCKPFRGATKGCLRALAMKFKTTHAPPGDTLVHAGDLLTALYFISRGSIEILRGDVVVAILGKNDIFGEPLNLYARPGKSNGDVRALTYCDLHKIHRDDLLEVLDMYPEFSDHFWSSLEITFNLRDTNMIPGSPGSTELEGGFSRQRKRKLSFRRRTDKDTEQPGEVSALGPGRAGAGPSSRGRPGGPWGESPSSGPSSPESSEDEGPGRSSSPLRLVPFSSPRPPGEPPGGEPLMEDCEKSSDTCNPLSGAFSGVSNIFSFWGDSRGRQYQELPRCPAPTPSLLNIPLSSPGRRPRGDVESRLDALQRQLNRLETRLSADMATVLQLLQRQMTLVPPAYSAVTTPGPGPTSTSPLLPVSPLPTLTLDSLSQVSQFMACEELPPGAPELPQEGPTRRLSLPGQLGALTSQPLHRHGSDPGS
Chain of Cytochrome P450 3A4 (P08684 whole entry): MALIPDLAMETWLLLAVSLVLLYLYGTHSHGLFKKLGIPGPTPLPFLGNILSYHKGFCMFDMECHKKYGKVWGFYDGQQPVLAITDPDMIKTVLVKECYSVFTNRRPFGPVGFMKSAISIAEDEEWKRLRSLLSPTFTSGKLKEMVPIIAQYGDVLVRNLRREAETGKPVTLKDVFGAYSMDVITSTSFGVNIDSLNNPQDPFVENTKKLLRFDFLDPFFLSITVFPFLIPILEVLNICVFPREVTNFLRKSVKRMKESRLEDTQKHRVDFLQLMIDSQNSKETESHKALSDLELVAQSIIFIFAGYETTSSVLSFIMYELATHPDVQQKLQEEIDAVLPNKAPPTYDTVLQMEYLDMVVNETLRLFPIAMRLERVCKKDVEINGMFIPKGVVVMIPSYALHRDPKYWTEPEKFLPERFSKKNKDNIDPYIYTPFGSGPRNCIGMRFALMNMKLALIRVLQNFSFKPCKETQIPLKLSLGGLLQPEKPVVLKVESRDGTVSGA
Chain of Mu-type opioid receptor (P35372 whole entry): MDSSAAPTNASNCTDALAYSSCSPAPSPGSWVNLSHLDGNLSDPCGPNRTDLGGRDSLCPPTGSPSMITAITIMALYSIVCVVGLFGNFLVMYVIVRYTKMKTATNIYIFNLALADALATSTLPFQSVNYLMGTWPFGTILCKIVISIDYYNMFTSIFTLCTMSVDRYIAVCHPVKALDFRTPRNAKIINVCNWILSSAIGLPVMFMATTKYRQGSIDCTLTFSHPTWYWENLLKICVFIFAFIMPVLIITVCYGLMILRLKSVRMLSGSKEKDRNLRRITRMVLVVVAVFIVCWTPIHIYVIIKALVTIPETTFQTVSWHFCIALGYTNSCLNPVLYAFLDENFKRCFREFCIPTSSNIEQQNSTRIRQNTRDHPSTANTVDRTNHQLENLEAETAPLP
Chain of 5-hydroxytryptamine receptor 2A (P35363 whole entry): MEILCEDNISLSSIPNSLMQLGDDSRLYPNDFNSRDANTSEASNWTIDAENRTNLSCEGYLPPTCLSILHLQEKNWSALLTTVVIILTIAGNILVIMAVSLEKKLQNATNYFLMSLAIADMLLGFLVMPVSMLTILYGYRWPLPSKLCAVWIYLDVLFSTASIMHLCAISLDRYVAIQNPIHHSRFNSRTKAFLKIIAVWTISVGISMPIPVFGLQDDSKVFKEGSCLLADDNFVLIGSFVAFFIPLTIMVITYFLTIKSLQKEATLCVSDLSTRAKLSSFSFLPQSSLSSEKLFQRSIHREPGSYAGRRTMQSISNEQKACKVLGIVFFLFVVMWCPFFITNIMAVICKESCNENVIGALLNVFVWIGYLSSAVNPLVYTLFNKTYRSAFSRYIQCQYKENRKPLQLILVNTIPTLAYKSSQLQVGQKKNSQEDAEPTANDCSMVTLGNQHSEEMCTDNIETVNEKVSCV

A word on the AC50: it is the concentration giving half of the maximal activity seen. Turning to `O=C(Nc1cc(C(=O)Nc2ccc(S(=O)(=O)O)cc2S(=O)(=O)O)cc(C(=O)Nc2ccc(S(=O)(=O)O)cc2S(=O)(=O)O)c1)Nc1cc(C(=O)Nc2ccc(S(=O)(=O)O)cc2S(=O)(=O)O)cc(C(=O)Nc2ccc(S(=O)(=O)O)cc2S(=O)(=O)O)c1`, the concentration at half-maximal activity (AC50) in experiment [1] is 35.5 µM (inconclusive); at Cytochrome P450 1A2, 31.6 µM (inconclusive) and 39.8 µM (inconclusive).

For `CC1(C(=O)N(CC(=O)NC2CCCC2)Cc2ccco2)CC(=O)N=C2C=CC=CN21` (stereo not drawn), the AC50 at Trypsin is 4.21 µM (active); at CAAX prenyl protease 2 [2], 3.19 µM (active); on CAAX prenyl protease 2 [3], 4.64 µM (active).

One may read the EC50 as the concentration at which the effect is half-maximal. In the case of `CC1=NN=C(c2ccc(N)cc2)c2cc3c(cc2C1)OCO3`, the figures for the EC50 (at Mu-type opioid receptor; in experiment [4]) were 92.5 µM (inactive) and 76.1 µM (inactive), respectively. Moreover, the AC50 in experiment [1] is 35.5 µM (inconclusive).

One may read the IC50 as the concentration that inhibits the measured activity by half. In the case of `CCOC(=O)c1ccc2[nH]c3ccccc3c2c1`, the IC50 (in [5]; in the experiment on HEK293) was > 67.5 µM (inactive) in each case.

For `Cc1ccc(NC(=O)c2cccc3cccnc23)cc1`, the IC50 in experiment [6] was 31.3 µM (active); in experiment [7], 8.6 µM (active); in experiment [8], 24.3 µM (active); at Caspase-3 it was 32.5 µM (active).

Take `Cc1nc2cc(NC(=O)c3ccc(Br)s3)ccc2s1`: the IC50 in [6] is > 100 µM (inactive); in [7], 4.08 µM (active); in experiment [8], > 100 µM (inactive); at Caspase-3 it was 19.7 µM (active).

Regarding `C=CCOC(=O)C1=C(C)OC(N)=C(C#N)C1c1ccco1` (stereo not drawn), the IC50 (in experiment [5]; in the experiment on HEK293) was > 67.5 µM (inactive) throughout.

`Cc1ccc(/N=C/c2c(O)oc3ccccc3c2=O)c(C)c1`: the IC50 in experiment [6] was > 100 µM (inactive); in experiment [7], > 100 µM (inactive); in experiment [8], > 100 µM (inactive); on Caspase-3, 95 µM (active).

On to `Nc1ncnc2c1ncn2C1C=C(CO)C(O)C1O` (stereo not drawn), for which the IC50 was > 67.7 µM (inactive) in experiment [5] and > 2.51 µM (active) in the experiment with HEK293.

Regarding `C[C@H](O)C(=O)C1=Nc2c(nc(N)[nH]c2=O)NC1` [SEPIAPTERIN], the AC50 was 28.2 µM (inconclusive) in experiment [1] and 0.316 µM (inconclusive) at Cytochrome P450 3A4.
